Measured values published in patent US20180327719A1, “METHOD FOR PRODUCING PANCREATIC BUD CELLS” (Kyoto University, priority 2015, published 2018).

Key:
Assay type in all cases: cell-based, human
[1] = system: PDX1+/NKX6.1− cells derived from iPS cell line (585A1); assay: Cell number count after Stage 3 culture with AT7867; conditions: 0.01 μM to 50 μM AT7867, 4 days, versus DMSO negative control (FIG. 2)
Experimental: (§1) The medium in the cell culture obtained in Stage 2-3 was changed to Improved MEM Zinc Option medium (15×10^4/ml) supplemented with 100 ng/ml KGF, 0.2 μM LDN193189, 50 ng/ml EGF (R&D systems, Inc.), indicated concentrations (0.01 μM to 50 μM) of AT7867 (Selleck Chemicals), 1% B-27 (DMSO as negative control) and the cells were further cultured for 4 days.

PDX1+ cells = assay: Immunostaining with anti-PDX1 and anti-Ki67 antibodies in Stage 3; conditions: 1 μM AT7867, 1 to 4 days after addition in Stage 3 (FIG. 3)
Experimental: as §1

NKX6.1+ cells = assay: Immunostaining with anti-NKX6.1 antibody after Stage 3; conditions: indicated concentrations of AT7867, after Stage 3 (FIG. 4A, 4B)
Experimental: as §1

PDX1+/NKX6.1+ cells = assay: Double staining with anti-PDX1 and anti-NKX6.1 antibodies (flow cytometry) after Stage 3; conditions: addition of AT7867, after Stage 3 (FIGS. 5A and B)
Experimental: as §1

[2] = system: PDX1, PTF1A, and NKX6.1 genes; assay: Quantitative PCR of PDX1, PTF1A and NKX6.1 gene expression during Stage 3; conditions: 1 μM AT7867, Day 0 to Day 4 of Stage 3, standardized with GAPDH, versus DMSO (FIG. 6)
Experimental: In Stage the cells were cultured in the presence of 1 μM AT7867. Cells were collected every day from Day 0 to Day 4 in Stage 3 and expression of PDX1, PTF1A, and NKX6.1 genes was measured by quantitative PCR. RNAs were extracted from the cells using RNeasy kit (Qiagen) and the reverse transcription reaction was performed with ReverTra Ace qPCR RT Master Mix (Toyobo) and oligo (dT) 20 primer. The quantitative PCR was performed with SYBR Premix Ex Taq II (Takara) using StepOnePlus™ Real-Time PCR System (Applied Biosystems). The gene expression was standardized with the expression of GAPDH gene and the relative gene expression was calculated from the relative standard curve (FIG. 6). […] PTF1A and NKX6.1 are transcription factors that indicate the differentiation of the cells into pancreatic bud cells

Clc1ccc(C2(c3ccc(-c4cn[nH]c4)cc3)CCNCC2)cc1 [AT7867]
number of cells obtained in Stage 3 [1]: increased in a manner dependent on the concentration of AT7867 | PDX1 status of proliferated (Ki67+) cells (PDX1+ cells): proliferated cells were positive for at least PDX1 | cells positive for at least NKX6.1 (NKX6.1+ cells): increased in a manner dependent on the concentration of AT7867 | PDX1+/NKX6.1+ cells (PDX1+/NKX6.1+ cells): increased by the addition of AT7867 | expression of NKX6.1 [2]: increased over time | expression of PDX1 [2]: increased over time | expression of PTF1A [2]: increased over time
